Experimental data: ChEMBL document CHEMBL1795227, “Methanesulfonamido-cyclohexylamine derivatives of 2,4-diaminopyrimidine as potent ALK inhibitors” (Bioorg Med Chem Lett, 2011)
Calls of active or inactive are those of the source. The rule behind the calls is not given here.

Assays:
[1] = AUC (0 to t) in CD1 mouse at 1 mg/kg, iv; type: ADME, organism-based; parameters: dose 1 mg/kg, route intravenous; conditions: plasma
[2] = Half life in CD1 mouse at 10 mg/kg, po; type: ADME, organism-based; parameters: dose 10 mg/kg, route oral; conditions: in vivo
[3] = Tmax in Sprague-Dawley rat at 5 mg/kg, po; type: ADME, organism-based; parameters: dose 5 mg/kg, route oral; conditions: in vivo
[4] = molecular target: Fibroblast growth factor receptor 3 (Homo sapiens) (UniProt P22607); conditions: 1 uM
Description: Inhibition of FGFR3 at 1 uM

[5] = Oral bioavailability in Sprague-Dawley rat at 5 mg/kg; type: ADME, organism-based; conditions: in vivo
[6] = molecular target: Ephrin type-A receptor 2 (Homo sapiens) (UniProt P29317); test: Inhibition of EPHA2 at 1 uM
[7] = molecular target: Receptor-type tyrosine-protein kinase FLT3 (Homo sapiens) (UniProt P36888); test: Inhibition of FLT3 at 1 uM
Mus musculus [8] = test: Toxicity in mouse assessed as overt signs at 55 mg/kg, po bid; type: organism-based; parameters: dose 55 mg/kg, route oral; conditions: in vivo
Mus musculus [9] = test: Toxicity in mouse assessed as body weight loss at 30 mg/kg, po bid; type: organism-based; parameters: dose 30 mg/kg, route oral; conditions: in vivo
Mus musculus [10] = test: Inhibition of NPM-ALK autophosphorylation in Karpas-299 cells xenografted mouse at 30 mg/kg, po administered as single dose measured after 2 hrs; type: functional; conditions: KARPAS-299, 2 h
Insulin receptor = Insulin receptor (Homo sapiens, UniProt P06213); test: Inhibition of INSR at 1 uM
[11] = Half life in CD1 mouse at 1 mg/kg, iv; type: ADME, organism-based; parameters: dose 1 mg/kg, route intravenous; conditions: in vivo
[12] = molecular target: Hepatocyte growth factor receptor (Homo sapiens) (UniProt P08581); test: Inhibition of MET at 1 uM
[13] = Volume of distribution in CD1 mouse at 1 mg/kg, iv; type: ADME, organism-based; parameters: dose 1 mg/kg, route intravenous; conditions: in vivo
[14] = Cmax in Sprague-Dawley rat at 5 mg/kg, po; type: ADME, organism-based; parameters: dose 5 mg/kg, route oral; conditions: in vivo
[15] = molecular target: Mitogen-activated protein kinase 14 (Homo sapiens) (UniProt Q16539); test: Inhibition of p38 alpha at 1 uM
[16] = molecular target: Activin receptor type-1 (Homo sapiens) (UniProt Q04771); test: Inhibition of ACVR1 at 1 uM
Mus musculus [17] = test: Toxicity in mouse assessed as body weight loss at 55 mg/kg, po bid; type: organism-based; parameters: dose 55 mg/kg, route oral; conditions: in vivo
[18] = molecular target: Ephrin type-A receptor 3 (Homo sapiens) (UniProt P29320); test: Inhibition of EPHA3 at 1 uM
[19] = AUC (0 to t) in Sprague-Dawley rat at 5 mg/kg, po; type: ADME, organism-based; parameters: dose 5 mg/kg, route oral; conditions: plasma
[20] = molecular target: Serine/threonine-protein kinase pim-1 (Homo sapiens) (UniProt P11309); test: Inhibition of PIM1 at 1 uM
[21] = Plasma concentration in Karpas-299 cells xenografted mouse at 30 mg/kg, po administered as single dose measured after 12 hrs; type: ADME, organism-based; parameters: dose 30 mg/kg, route oral
[22] = molecular target: Macrophage colony-stimulating factor 1 receptor (Homo sapiens) (UniProt P07333); test: Inhibition of CSF1R at 1 uM
[23] = system: Mast/stem cell growth factor receptor Kit (Homo sapiens), P10721 [V559D,T670I]; test: Inhibition of KIT V559D T670I at 1 uM
[24] = Clearance in Sprague-Dawley rat at 1 mg/kg, iv; type: ADME, organism-based; parameters: dose 1 mg/kg, route intravenous; conditions: in vivo
KARPAS-299 [25] = test: Antitumor activity against human KARPAS299 cells xenografted in mouse assessed as tumor growth inhibition at 55 mg/kg, po bid; type: functional; conditions: read-out: GI
[26] = Volume of distribution in Sprague-Dawley rat at 1 mg/kg, iv; type: ADME, organism-based; parameters: dose 1 mg/kg, route intravenous; conditions: in vivo
[27] = AUC (0 to t) in CD1 mouse at 10 mg/kg, po; type: ADME, organism-based; parameters: dose 10 mg/kg, route oral; conditions: plasma
[28] = Oral bioavailability in CD1 mouse at 10 mg/kg; type: ADME, organism-based; conditions: in vivo
[29] = molecular target: Mitogen-activated protein kinase 10 (Homo sapiens) (UniProt P53779); test: Inhibition of JNK3 at 1 uM
[30] = Half life in Sprague-Dawley rat at 1 mg/kg, iv; type: ADME, organism-based; parameters: dose 1 mg/kg, route intravenous; conditions: in vivo
[31] = molecular target: Aurora kinase C (Homo sapiens) (UniProt Q9UQB9); test: Inhibition of AURKC at 1 uM
[32] = molecular target: Platelet-derived growth factor receptor beta (Homo sapiens) (UniProt P09619); conditions: 1 uM
Description: Inhibition of PDGFR beta at 1 uM

[33] = Plasma concentration in Karpas-299 cells xenografted mouse at 30 mg/kg, po administered as single dose measured after 6 hrs; type: ADME, organism-based; parameters: dose 30 mg/kg, route oral
[34] = Clearance in CD1 mouse at 1 mg/kg, iv; type: ADME, organism-based; parameters: dose 1 mg/kg, route intravenous; conditions: in vivo
[35] = Drug level in tumor of Karpas-299 cells xenografted mouse at 30 mg/kg, po administered as single dose measured after 2 hrs; type: ADME, organism-based, Neoplasm; parameters: dose 30 mg/kg, route oral; conditions: read-out: Drug uptake
Mus musculus [36] = test: Inhibition of NPM-ALK autophosphorylation in Karpas-299 cells xenografted mouse at 30 mg/kg, po administered as single dose measured after 6 hrs; type: functional, organism-based; parameters: dose 30 mg/kg
[37] = molecular target: Receptor tyrosine-protein kinase erbB-4 (Homo sapiens) (UniProt Q15303); test: Inhibition of ERBB4 at 1 uM
KARPAS-299 [38] = test: Antitumor activity against human KARPAS299 cells xenografted in mouse assessed as tumor growth inhibition at 30 mg/kg, po bid; type: functional; conditions: read-out: GI
[39] = Drug level in tumor of Karpas-299 cells xenografted mouse at 30 mg/kg, po administered as single dose measured after 6 hrs; type: ADME, organism-based, Neoplasm; parameters: dose 30 mg/kg, route oral; conditions: read-out: Drug uptake
[40] = molecular target: Epidermal growth factor receptor (Homo sapiens) (UniProt P00533); test: Inhibition of EGFR at 1 uM
[41] = molecular target: Serine/threonine-protein kinase PAK 1 (Homo sapiens) (UniProt Q13153); test: Inhibition of PAK1 at 1 uM
[42] = AUC (0 to t) in Sprague-Dawley rat at 1 mg/kg, iv; type: ADME, organism-based; parameters: dose 1 mg/kg, route intravenous; conditions: plasma
[43] = Drug level in tumor of Karpas-299 cells xenografted mouse at 30 mg/kg, po administered as single dose measured after 12 hrs; type: ADME, organism-based, Neoplasm; parameters: dose 30 mg/kg, route oral; conditions: read-out: Drug uptake
[44] = Cmax in CD1 mouse at 10 mg/kg, po; type: ADME, organism-based; parameters: dose 10 mg/kg, route oral; conditions: in vivo
Mus musculus [45] = test: Toxicity in mouse assessed as overt signs at 30 mg/kg, po bid; type: organism-based; parameters: dose 30 mg/kg, route oral; conditions: in vivo
[46] = Plasma concentration in Karpas-299 cells xenografted mouse at 30 mg/kg, po administered as single dose measured after 2 hrs; type: ADME, organism-based; parameters: dose 30 mg/kg, route oral
[47] = Tmax in CD1 mouse at 10 mg/kg, po; type: ADME, organism-based; parameters: dose 10 mg/kg, route oral; conditions: in vivo

Epidermal growth factor receptor (Homo sapiens), sequence (P00533 whole entry): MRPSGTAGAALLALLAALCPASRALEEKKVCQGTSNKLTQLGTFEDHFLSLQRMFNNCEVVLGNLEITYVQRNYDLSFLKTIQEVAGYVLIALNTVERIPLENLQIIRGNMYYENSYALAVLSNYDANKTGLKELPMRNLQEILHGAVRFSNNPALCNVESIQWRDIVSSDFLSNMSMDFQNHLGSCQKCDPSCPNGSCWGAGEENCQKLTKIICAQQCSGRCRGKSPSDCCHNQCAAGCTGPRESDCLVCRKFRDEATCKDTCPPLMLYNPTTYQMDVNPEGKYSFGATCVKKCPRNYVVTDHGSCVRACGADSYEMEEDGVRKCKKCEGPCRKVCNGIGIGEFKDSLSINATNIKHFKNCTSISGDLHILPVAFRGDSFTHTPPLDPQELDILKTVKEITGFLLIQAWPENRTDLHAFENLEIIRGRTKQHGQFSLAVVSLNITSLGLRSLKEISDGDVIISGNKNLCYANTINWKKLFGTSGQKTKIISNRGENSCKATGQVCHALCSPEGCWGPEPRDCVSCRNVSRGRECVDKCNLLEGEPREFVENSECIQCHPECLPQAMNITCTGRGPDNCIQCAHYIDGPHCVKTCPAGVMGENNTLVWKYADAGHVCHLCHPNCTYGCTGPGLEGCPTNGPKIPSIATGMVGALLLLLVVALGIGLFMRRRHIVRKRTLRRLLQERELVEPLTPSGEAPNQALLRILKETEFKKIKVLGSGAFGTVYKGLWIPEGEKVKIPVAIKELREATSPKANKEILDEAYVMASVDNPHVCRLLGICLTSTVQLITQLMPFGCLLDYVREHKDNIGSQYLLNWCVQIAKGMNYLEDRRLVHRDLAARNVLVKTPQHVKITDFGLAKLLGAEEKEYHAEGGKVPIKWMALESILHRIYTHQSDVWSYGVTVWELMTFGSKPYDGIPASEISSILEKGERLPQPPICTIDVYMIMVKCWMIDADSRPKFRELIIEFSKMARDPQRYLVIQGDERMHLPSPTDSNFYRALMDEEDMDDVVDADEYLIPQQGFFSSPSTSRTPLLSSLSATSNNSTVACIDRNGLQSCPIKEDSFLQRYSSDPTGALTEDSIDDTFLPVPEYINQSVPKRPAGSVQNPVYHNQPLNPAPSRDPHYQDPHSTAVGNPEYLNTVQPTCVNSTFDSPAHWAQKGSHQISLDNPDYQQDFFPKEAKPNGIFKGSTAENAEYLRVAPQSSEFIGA
Platelet-derived growth factor receptor beta (Homo sapiens), sequence (P09619 whole entry): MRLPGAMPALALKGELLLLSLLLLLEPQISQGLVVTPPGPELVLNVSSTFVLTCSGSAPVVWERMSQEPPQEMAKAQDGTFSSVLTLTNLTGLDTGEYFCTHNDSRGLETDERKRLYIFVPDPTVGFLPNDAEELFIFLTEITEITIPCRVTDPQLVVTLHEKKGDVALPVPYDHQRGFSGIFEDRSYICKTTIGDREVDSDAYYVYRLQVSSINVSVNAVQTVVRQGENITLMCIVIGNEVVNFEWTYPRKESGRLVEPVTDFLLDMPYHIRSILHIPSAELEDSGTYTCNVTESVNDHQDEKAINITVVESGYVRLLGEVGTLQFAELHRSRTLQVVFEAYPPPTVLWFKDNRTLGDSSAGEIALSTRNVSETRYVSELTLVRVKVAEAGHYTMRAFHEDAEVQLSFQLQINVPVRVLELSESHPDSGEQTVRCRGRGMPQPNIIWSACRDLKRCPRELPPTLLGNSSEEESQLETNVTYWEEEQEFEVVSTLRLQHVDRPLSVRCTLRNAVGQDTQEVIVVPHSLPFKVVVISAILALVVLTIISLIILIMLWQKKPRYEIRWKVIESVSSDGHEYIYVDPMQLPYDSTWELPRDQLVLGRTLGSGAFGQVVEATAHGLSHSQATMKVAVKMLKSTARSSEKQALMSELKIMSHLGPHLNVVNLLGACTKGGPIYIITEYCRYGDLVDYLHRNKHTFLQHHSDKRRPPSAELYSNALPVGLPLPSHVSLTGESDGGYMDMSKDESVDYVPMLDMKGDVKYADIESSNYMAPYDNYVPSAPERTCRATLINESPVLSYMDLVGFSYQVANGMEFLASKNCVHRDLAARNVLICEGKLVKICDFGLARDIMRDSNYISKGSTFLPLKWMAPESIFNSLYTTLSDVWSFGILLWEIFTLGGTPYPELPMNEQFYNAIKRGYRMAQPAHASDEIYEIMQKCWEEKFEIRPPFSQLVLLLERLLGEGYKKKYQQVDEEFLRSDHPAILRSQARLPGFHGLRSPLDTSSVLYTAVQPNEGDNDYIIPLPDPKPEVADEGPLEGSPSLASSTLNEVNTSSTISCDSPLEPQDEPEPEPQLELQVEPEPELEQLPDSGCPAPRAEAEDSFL
Aurora kinase C (Homo sapiens), sequence (Q9UQB9 whole entry): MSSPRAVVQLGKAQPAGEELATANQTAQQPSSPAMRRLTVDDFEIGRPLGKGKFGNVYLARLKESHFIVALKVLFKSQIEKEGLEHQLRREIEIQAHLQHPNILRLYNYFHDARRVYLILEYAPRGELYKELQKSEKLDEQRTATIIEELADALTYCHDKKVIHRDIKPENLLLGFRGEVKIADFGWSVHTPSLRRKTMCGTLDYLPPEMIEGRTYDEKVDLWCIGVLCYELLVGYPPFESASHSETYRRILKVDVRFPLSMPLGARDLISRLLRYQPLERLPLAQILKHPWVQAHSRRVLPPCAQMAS
Insulin receptor, sequence (P06213 28-758 limits assumed): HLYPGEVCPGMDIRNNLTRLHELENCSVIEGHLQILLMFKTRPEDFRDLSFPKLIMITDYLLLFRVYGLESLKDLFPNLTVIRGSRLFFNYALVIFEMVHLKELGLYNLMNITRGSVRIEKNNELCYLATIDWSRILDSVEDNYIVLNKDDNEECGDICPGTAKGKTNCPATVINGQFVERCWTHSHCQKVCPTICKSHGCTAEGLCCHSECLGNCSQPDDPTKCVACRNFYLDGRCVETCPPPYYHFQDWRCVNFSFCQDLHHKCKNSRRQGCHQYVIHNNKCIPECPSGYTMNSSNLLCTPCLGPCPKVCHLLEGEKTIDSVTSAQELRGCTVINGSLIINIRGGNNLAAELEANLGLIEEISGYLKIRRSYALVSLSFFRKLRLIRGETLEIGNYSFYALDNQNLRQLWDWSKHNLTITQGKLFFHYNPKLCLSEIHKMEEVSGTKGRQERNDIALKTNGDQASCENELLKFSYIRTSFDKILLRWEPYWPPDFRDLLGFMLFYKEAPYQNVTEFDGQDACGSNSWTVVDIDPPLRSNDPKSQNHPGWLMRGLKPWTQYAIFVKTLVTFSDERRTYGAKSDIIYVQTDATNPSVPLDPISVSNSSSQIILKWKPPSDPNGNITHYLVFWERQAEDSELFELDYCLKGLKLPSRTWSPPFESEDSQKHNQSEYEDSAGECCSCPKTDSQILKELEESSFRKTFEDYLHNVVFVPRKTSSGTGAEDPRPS
Insulin receptor, sequence (P06213 763-1382 limits assumed): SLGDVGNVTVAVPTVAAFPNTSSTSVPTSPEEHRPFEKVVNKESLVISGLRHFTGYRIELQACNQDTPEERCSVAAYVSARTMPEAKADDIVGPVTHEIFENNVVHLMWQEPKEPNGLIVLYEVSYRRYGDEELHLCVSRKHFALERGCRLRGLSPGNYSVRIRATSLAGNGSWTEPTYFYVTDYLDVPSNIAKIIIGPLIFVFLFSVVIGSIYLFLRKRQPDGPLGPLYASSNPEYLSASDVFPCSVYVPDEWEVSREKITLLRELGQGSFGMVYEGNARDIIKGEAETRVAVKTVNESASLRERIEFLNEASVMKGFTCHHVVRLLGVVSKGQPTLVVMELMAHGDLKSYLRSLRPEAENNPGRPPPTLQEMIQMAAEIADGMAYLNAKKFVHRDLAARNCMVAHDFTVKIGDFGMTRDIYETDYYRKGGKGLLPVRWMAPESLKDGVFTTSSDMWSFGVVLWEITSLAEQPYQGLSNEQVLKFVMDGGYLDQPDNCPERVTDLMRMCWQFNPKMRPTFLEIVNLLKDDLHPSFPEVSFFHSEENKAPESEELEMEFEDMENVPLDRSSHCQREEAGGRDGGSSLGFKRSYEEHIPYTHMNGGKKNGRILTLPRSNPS
Mast/stem cell growth factor receptor Kit (Homo sapiens), P10721 [V559D,T670I], sequence (P10721 whole entry V559D/T670I): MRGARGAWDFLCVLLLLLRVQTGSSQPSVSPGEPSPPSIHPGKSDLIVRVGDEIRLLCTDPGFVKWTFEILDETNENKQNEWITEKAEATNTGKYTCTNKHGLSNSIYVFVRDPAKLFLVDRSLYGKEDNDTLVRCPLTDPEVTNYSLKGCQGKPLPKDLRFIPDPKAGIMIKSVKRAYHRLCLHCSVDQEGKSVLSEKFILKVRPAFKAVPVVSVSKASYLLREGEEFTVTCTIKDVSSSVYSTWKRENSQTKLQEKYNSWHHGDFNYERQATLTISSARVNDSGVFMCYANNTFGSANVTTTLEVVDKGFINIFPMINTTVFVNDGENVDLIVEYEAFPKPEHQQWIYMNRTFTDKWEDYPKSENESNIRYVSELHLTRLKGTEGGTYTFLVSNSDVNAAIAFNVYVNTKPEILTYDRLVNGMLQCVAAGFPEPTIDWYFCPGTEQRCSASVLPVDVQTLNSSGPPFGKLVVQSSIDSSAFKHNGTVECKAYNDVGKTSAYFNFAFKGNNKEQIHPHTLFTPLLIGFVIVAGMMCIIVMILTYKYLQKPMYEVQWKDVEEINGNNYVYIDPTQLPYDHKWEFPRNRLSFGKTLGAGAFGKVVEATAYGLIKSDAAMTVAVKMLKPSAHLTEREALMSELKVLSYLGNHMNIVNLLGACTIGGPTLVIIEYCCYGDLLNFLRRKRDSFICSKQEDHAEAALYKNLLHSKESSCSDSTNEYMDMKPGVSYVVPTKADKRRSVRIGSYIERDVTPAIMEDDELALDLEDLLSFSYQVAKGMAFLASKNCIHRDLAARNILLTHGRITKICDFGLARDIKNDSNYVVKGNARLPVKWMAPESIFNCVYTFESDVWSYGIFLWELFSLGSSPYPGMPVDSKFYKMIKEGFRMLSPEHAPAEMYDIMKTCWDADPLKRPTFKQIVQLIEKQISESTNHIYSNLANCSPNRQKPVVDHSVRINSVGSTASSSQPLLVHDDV

## COCCN1CCc2cc(Nc3ncc(Cl)c(N[C@@H]4CCCC[C@H]4NS(C)(=O)=O)n3)c(OC)cc2CC1
[1]
  AUC(0-t): 2930 ng·h/mL
[2]
  half-life: 1 h
[3]
  Tmax: 1.8 h
[4]
  inhibition: < 65%
[5]
  bioavailability: 24%
[6]
  inhibition: < 65%
[7]
  inhibition: 82%
Mus musculus [8]
  Activity: Non-toxic
Mus musculus [9]
  Activity: Non-toxic
Mus musculus [10]
  inhibition in vivo at 30 mg/kg: 75%
Insulin receptor
  inhibition: < 65%
[11]
  half-life: 0.9 h
[12]
  inhibition: < 65%
[13]
  Vd: 0.4 L/kg
[14]
  Cmax: 23 ng/mL
[15]
  inhibition: < 65%
[16]
  inhibition: < 65%
Mus musculus [17]
  Activity: Non-toxic
[18]
  inhibition: < 65%
[19]
  AUC(0-t): 110 ng·h/mL
[20]
  inhibition: < 65%
[21]
  concentration at 12 h: 2650 ng/mL
[22]
  inhibition: < 65%
[23]
  inhibition: < 65%
[24]
  clearance: 217 mL/min/kg
KARPAS-299 [25]
  inhibition in vivo at 55 mg/kg: 54%
[26]
  Vd: 10.1 L/kg
[27]
  AUC(0-t): 8200 ng·h/mL
[28]
  bioavailability: 28%
[29]
  inhibition: < 65%
[30]
  half-life: 0.6 h
[31]
  inhibition: < 65%
[32]
  inhibition: < 65%
[33]
  concentration at 6 h: 3680 ng/mL
[34]
  clearance: 5.6 mL/min/kg
[35]
  concentration at 2 h: 695 ng/g
Mus musculus [36]
  inhibition: inactive
[37]
  inhibition: 74%
KARPAS-299 [38]
  inhibition in vivo at 30 mg/kg: 45%
[39]
  concentration at 6 h: 602 ng/g
[40]
  inhibition: < 65%
[41]
  inhibition: < 65%
[42]
  AUC(0-t): 72 ng·h/mL
[43]
  concentration at 12 h: 279 ng/g
[44]
  Cmax: 2880 ng/mL
Mus musculus [45]
  Activity: Non-toxic
[46]
  concentration at 2 h: 2740 ng/mL
[47]
  Tmax: 1 h

## COCCN1CCc2cc(Nc3ncc(Cl)c(N[C@@H]4CCCC[C@H]4N(C)S(C)(=O)=O)n3)c(OC)cc2CC1
[4]
  inhibition: 100%
[6]
  inhibition: < 65%
[7]
  inhibition: 99%
Insulin receptor
  inhibition: 70%
[12]
  inhibition: < 65%
[15]
  inhibition: < 65%
[16]
  inhibition: < 65%
[18]
  inhibition: < 65%
[20]
  inhibition: 90%
[22]
  inhibition: 98%
[23]
  inhibition: 92%
[29]
  inhibition: 98%
[31]
  inhibition: < 65%
[32]
  inhibition: 100%
[37]
  inhibition: 98%
[40]
  inhibition: 89%
[41]
  inhibition: < 65%
